Measured values from paper PMC10340532, “MCAK Inhibitors Induce Aneuploidy in Triple-Negative Breast Cancer Models” (Cancers, 2023).

Target: T1, MCAK (Homo sapiens, UniProt Q99661)
T1 construct: gene KIF2C
T1 sequence (Q99661 2-725): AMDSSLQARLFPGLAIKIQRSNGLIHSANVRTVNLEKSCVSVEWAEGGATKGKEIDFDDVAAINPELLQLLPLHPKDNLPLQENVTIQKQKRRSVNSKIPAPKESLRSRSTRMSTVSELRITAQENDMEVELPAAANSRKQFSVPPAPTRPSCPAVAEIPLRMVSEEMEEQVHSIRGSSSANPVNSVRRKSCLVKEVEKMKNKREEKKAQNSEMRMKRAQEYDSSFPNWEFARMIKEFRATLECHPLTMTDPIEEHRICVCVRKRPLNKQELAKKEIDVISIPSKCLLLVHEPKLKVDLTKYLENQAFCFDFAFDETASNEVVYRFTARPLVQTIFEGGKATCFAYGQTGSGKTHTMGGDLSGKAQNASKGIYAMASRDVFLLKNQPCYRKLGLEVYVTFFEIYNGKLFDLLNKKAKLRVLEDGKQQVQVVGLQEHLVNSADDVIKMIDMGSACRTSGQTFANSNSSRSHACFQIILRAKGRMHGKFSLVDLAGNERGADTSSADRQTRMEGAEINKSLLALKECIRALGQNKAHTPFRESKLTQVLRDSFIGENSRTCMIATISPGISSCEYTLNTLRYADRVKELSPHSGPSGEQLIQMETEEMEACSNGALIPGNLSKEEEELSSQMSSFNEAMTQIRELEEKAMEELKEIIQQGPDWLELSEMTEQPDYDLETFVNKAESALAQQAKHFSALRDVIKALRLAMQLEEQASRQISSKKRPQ
Experiment: sedimentation-based microtubule depolymerization assay with purified FMCAK; FRET conformation screen, FCP counter screen
Format: biochemical

sedimentation-based microtubule depolymerization assay with purified FMCAK; FRET: 5 µM
SMILES: CC(C)c1noc(C2CCCN2C(=O)c2cc(=O)c3ccccc3o2)n1 (stereo not shown) [H9, 2042 H9]
